Consider 2 molecules from patent US20250145639A1, “MUTANT KRAS MODULATORS AND USES THEREOF” (NEWAVE PHARMACEUTICAL INC., priority 2021, published 2025).

Test [1] deals with T1, HIS-KRAS (G12C, aa 2-185) (Homo sapiens, UniProt P01116, G12C).
T1 construct: HIS-KRAS (G12C, aa 2-185, Sino biological); purchased Sino biological
In words: KRas G12C binding assay (TR-FRET, SOS1-mediated BODIPY FL GTP nucleotide exchange). To be noted: GDP-loaded HIS-KRAS (G12C) 3 nM, 1 hour pre-incubation with compound, 4 hours with SOS1 ExD and BODIPY FL GTP at 25° C. On the procedure: Biological Example 1: KRas G12C Binding Assay
(§1) HIS-KRAS (G12C, aa 2-185, Sino biological) was diluted to 5 uM in EDTA buffer (20 mM HEPES, pH 7.4, 50 mM NaCl, 10 mM EDTA, 0.01% (v/v) Tween-20) and incubated for 30 min at 25° C. The EDTA pretreated HIS-KRAS (G12C) was diluted to 12 nM in assay buffer (25 mM HEPES, pH 7.4, 120 mM NaCl, 5 mM MgCl 2, 1 mM DTT, 0.01% (v/v) Tween 20, 0.1% (w/v) BSA) containing 120 nM GDP (Sigma) and MAb Anti 6HIS—Tb cryptate Gold (Cisbio) and incubated for 1 hour at 25° C. to prepare GDP-loaded HIS-KRAS (G12C). The GDP-loaded HIS-KRAS (G12C) was pre-incubation with diluted compounds in a 384-well plate (Greiner) for 1 hour, then purified SOS1 ExD (Flag tag, aa 564-1049) and BODIPY™ FL GTP (Invitrogen) were added to the assay wells (Final concentration: 3 nM HIS-KRAS (G12C), 2 uM SOS1 ExD, 80 nM BODIPY™ FL GTP, 21 ng/mL MAb Anti 6HIS—Tb cryptate Gold) and incubated for 4 hours at 25° C. TR-FRET signals were then read on Tecan Spark multimode microplate reader. The parameters were F486: Excitation 340 (35) nm, Emission 486 (10) nm, Lag time 100 μs, Integration time 200 μs; F515: Excitation 340 (35) nm, Emission 515 (10) nm, Lag time 100 μs, Integration time 200 μs. TR-FRET ratios for each individual wells were calculated by equation: TR-FRET ratio=(Signal F515/Signal F486)*10000. Then the data were analyzed using a 4-parameter logistic model to calculate IC50 values. The following table lists the IC50 values of certain compounds of the invention.
In general terms: Time-resolved FRET reads energy transfer from a long-lived donor to a nearby acceptor.

Test [2] deals with T2, GDP-loaded, histidine-tagged, truncated (1-169) KRAS G12C (Homo sapiens, UniProt P01116, G12C).
T2 construct: histidine-tagged, truncated (1-169) KRAS proteins; His
In words: KRas G12C in vitro covalent MS-based assay. It counts as binding. To be noted: KRAS protein 2 uM, denaturing SEC-MS intact mass. On the procedure:
Biological Example 2: KRas G12C In Vitro Covalent MS-Based Assay
GDP-loaded, histidine-tagged, truncated (1-169) KRAS proteins (G12C, WT, G13D, as indicated) at 2 uM final concentration were incubated with the test compounds at the doses and time points indicated in a buffer containing 20 mmol/L HEPES pH 7.5, 150 mmol/L NaCl, 1 mmol/L MgCl 2, and 1 mmol/L DTT. Reactions were quenched by adding formic acid to 0.2%. Samples were buffer exchanged and analyzed by denaturing SEC-MS (Orbitrap Eclipse), Mobile phase: 30% ACN, 0.1% formic acid, 0.02% TFA. Raw data were analyzed by charge state deconvolution with BioPharma Finder 4.1 Intact Mass, ReSpect and Sliding Window algorithms. The masses were calculated via software for KRAS_G12C theoretical sequence and experimental compounds.

In the next test the target is HIS-KRAS (G12V) (Homo sapiens, UniProt P01116, G12V). The experiment in a line: KRas G12V binding assay (TR-FRET, SOS1-mediated BODIPY FL GTP nucleotide exchange). The conditions noted are these: GDP-loaded HIS-KRAS (G12V) 3 nM, 1 hour pre-incubation with compound, 4 hours with SOS1 ExD and BODIPY FL GTP at 25° C. Here is the method:
Biological Example 3: KRas G12V Binding Assay
as §1, with “(G12V)” for “(G12C, aa 2-185, Sino biological)”, “(G12V)” for “(G12C)”, “(G12V).” for “(G12C).”, “(G12V),” for “(G12C),”

HIS-KRAS (G12V), sequence (P01116 1-188 isoform P01116-2 G12V): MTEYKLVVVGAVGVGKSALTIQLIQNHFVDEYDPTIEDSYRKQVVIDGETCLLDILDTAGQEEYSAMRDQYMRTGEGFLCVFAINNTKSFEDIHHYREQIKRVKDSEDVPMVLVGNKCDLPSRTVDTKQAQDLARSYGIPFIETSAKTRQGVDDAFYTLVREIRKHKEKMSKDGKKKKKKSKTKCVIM
T2 sequence (P01116 1-169 isoform P01116-2 G12C): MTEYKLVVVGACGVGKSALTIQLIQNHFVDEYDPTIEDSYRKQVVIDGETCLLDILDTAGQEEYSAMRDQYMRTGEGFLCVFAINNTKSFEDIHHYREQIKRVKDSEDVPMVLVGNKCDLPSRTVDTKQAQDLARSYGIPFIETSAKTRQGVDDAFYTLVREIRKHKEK
T1 sequence (P01116 2-185 isoform P01116-2 G12C): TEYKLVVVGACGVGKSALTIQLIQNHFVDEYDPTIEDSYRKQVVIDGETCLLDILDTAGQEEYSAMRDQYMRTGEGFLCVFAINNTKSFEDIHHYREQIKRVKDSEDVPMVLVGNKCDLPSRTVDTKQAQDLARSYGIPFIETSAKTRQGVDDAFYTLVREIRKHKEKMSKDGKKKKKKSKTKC

For the molecule `C#Cc1c(F)ccc2cc(O)cc(-c3ncc4c(N5CCCC[C@@H](NC(=O)C=C)C5)nc(OCC56CCCN5CCC6)nc4c3F)c12` [Example 8, N-[(3R)-1-[7-(8-ethynyl-7-fluoro-3-hydroxynaphthalen-1-yl)-8-fluoro-2-(hexahydropyrrolizin-7a-ylmethoxy)pyrido[4,3-d]pyrimidin-4-yl]azepan-3-yl]prop-2-enamide], the concentration for half-maximal inhibition (IC50) in test [1] came to 7.11 nM; at HIS-KRAS (G12V), 22.9 nM. The “Binding Model” value in test [2] is on record as “Covalent binding”.
Regarding `C#Cc1c(F)ccc2cc(O)cc(-c3ncc4c(N5CCCC[C@H](NC(=O)C=C)C5)nc(OCC56CCCN5CCC6)nc4c3F)c12` [Example 9, N-[(3S)-1-[7-(8-ethynyl-7-fluoro-3-hydroxynaphthalen-1-yl)-8-fluoro-2-(hexahydropyrrolizin-7a-ylmethoxy)pyrido[4,3-d]pyrimidin-4-yl]azepan-3-yl]prop-2-enamide], the IC50 turned out to be 6.4 nM in test [1] and 3.15 nM at HIS-KRAS (G12V). Besides, the “Binding Model” value in test [2] is “Covalent binding”.

The IC50 is the point on the concentration scale where inhibition reaches its midpoint.
